For 25 molecules, melting point and IC50 results are on record in paper PMC10974284, “Discovery of Novel 4-Hydroxyquinazoline Derivatives: In Silico, In Vivo and In Vitro Studies Using Primary PARPi-Resistant Cell Lines” (Molecules, 2024).

Read-outs that look alike come from different tables or passages of the source.

Data set [1] concerns HCC1937 cell lines. Nature of the data set: MTT cytotoxicity assay, HCC1937. The class given is cell-based, human. As to conditions: Homo sapiens, read-out: IC50 HCC1937. As to the method: (§1) After treatment with target compounds at the different concentrations, MTT was added and the cells were incubated for another 4 h. The IC50 values of the selected compounds were evaluated by the same method. The cells were treated with compounds at different concentrations. The OD values were detected using a microplate reader at 570 nm.

The subject of data set [2] is HCT-15 cell lines. Nature of the data set: MTT cytotoxicity assay, HCT-15. The format is cell-based, human. As to conditions: Homo sapiens, read-out: IC50 HCT-15. As to the method:
as §1

The mark [3] stands for this setting: HCC1937, 72 h (3-Days) drug exposure, MTT.
[4] abbreviates: HCT-15, 72 h (3-Days) drug exposure, MTT.

The melting point is the temperature of the solid-liquid transition. What is called IC50 is the concentration needed to halve the response being measured. Take `O=C(Nc1ccc(C(F)(F)F)cc1F)N1CCN(Cc2nc3ccccc3c(=O)[nH]2)CC1` [A24, N-(2-fluoro-4-(trifluoromethyl)phenyl)-4-((4-oxo-3,4-dihydroquinazolin-2-yl)methyl)piperazine-1-carboxamide]: the melting point is 202.3 to 203.9 °C. The half-maximal inhibitory concentration (IC50) in data set [1] (setting [3]) amounted to 44.1 ± 2.19 µM. Also, the IC50 in data set [2] (setting [4]) turned out to be 22.8 ± 1.82 µM.

Molecule `O=C(Nc1c(F)cccc1Cl)N1CCN(Cc2nc3ccccc3c(=O)[nH]2)CC1` [A25, N-(2-chloro-6-fluorophenyl)-4-((4-oxo-3,4-dihydroquinazolin-2-yl)methyl)piperazine-1-carboxamide] came in with a melting point of 198.4 to 199.8 °C. The IC50 in data set [1] (setting [3]) is over 50 µM. Moreover, in data set [2] (setting [4]), the 50% inhibitory concentration (IC50) was determined as 41.2 ± 1.44 µM.

The molecule `O=C(Nc1cc(C(F)(F)F)ccc1Cl)N1CCN(Cc2nc3ccccc3c(=O)[nH]2)CC1` [A26, N-(2-chloro-5-(trifluoromethyl)phenyl)-4-((4-oxo-3,4-dihydroquinazolin-2-yl)methyl)piperazine-1-carboxamide] showed a melting point of 191.2 to 193.9 °C. Also, the half-maximal inhibitory concentration (IC50) in data set [1] (setting [3]) was over 50 µM. Besides, the IC50 in data set [2] (setting [4]) is 37.3 ± 2.76 µM.

On to `Cc1ccc(Cl)c(NC(=O)N2CCN(Cc3nc4ccccc4c(=O)[nH]3)CC2)c1` [A27, N-(2-chloro-5-methylphenyl)-4-((4-oxo-3,4-dihydroquinazolin-2-yl)methyl)piperazine-1-carboxamide], for which the melting point was in the range of 196.7 to 198.7 °C. For the same molecule, the IC50 in data set [1] (setting [3]) worked out at 17.5 ± 0.66 µM. In data set [2] (setting [4]), the IC50 came out at 25.4 ± 1.48 µM.

Turning to `Cc1c(F)cccc1NC(=O)N1CCN(Cc2nc3ccccc3c(=O)[nH]2)CC1` [A28, N-(3-fluoro-2-methylphenyl)-4-((4-oxo-3,4-dihydroquinazolin-2-yl)methyl)piperazine-1-carboxamide], the melting point lay within 198.9 to 200.6 °C. Further, the IC50 in data set [1] (setting [3]) is over 50 µM. In addition, the IC50 in data set [2] (setting [4]) was 30.3 ± 3.3 µM.

Molecule `Cc1cc(F)ccc1NC(=O)N1CCN(Cc2nc3ccccc3c(=O)[nH]2)CC1` [A29, N-(4-fluoro-2-methylphenyl)-4-((4-oxo-3,4-dihydroquinazolin-2-yl)methyl)piperazine-1-carboxamide] yielded a melting point of 197.6 to 200.1 °C. Also, the IC50 in data set [1] (setting [3]) is over 50 µM. Moreover, the IC50 in data set [2] (setting [4]) was 29.8 ± 1.57 µM.

As to `Cc1ccc(F)cc1NC(=O)N1CCN(Cc2nc3ccccc3c(=O)[nH]2)CC1` [A30, N-(5-fluoro-2-methylphenyl)-4-((4-oxo-3,4-dihydroquinazolin-2-yl)methyl)piperazine-1-carboxamide], the melting point fell in the range of 201.1 to 202.8 °C. For the same molecule, the IC50 in data set [1] (setting [3]) was determined as 39.5 ± 1.84 µM. In addition, the IC50 in data set [2] (setting [4]) came out at 18.3 ± 0.44 µM.

For the molecule `Cc1c(Br)cccc1NC(=O)N1CCN(Cc2nc3ccccc3c(=O)[nH]2)CC1` [A31, N-(3-bromo-2-methylphenyl)-4-((4-oxo-3,4-dihydroquinazolin-2-yl)methyl)piperazine-1-carboxamide], the melting point was 200.6 to 202.2 °C. The IC50 in data set [1] (setting [3]) is over 50 µM. Moreover, the concentration for half-maximal inhibition (IC50) in data set [2] (setting [4]) is over 50 µM.

On to `Cc1ccc(Cl)cc1NC(=O)N1CCN(Cc2nc3ccccc3c(=O)[nH]2)CC1` [A32, N-(5-chloro-2-methylphenyl)-4-((4-oxo-3,4-dihydroquinazolin-2-yl)methyl)piperazine-1-carboxamide], for which the melting point was 203.1 to 204.7 °C. In addition, the half-maximal inhibitory concentration (IC50) in data set [1] (setting [3]) was found to be 11.3 ± 0.73 µM. Further, in data set [2] (setting [4]), the IC50 came to 10.9 ± 0.71 µM.

As to `Cc1cccc(C)c1NC(=O)N1CCN(Cc2nc3ccccc3c(=O)[nH]2)CC1` [A33, N-(2,6-dimethylphenyl)-4-((4-oxo-3,4-dihydroquinazolin-2-yl)methyl)piperazine-1-carboxamide], the melting point lay within 200.3 to 201.9 °C. The IC50 in data set [1] (setting [3]) was 39.6 ± 1.35 µM. Further, in data set [2] (setting [4]), the IC50 was 35 ± 2.28 µM.

For the molecule `O=C(Nc1cc(F)cc(F)c1)N1CCN(Cc2nc3ccccc3c(=O)[nH]2)CC1` [A34, N-(3,5-difluorophenyl)-4-((4-oxo-3,4-dihydroquinazolin-2-yl)methyl)piperazine-1-carboxamide], the melting point was in the range of 199.8 to 200.2 °C. Also, the IC50 in data set [1] (setting [3]) is over 50 µM. The IC50 in data set [2] (setting [4]) was found to be 47.2 ± 3.35 µM.

`O=C(Nc1cc(Cl)cc(Cl)c1)N1CCN(Cc2nc3ccccc3c(=O)[nH]2)CC1` [A35, N-(3,5-dichlorophenyl)-4-((4-oxo-3,4-dihydroquinazolin-2-yl)methyl)piperazine-1-carboxamide] displayed a melting point of 207.5 to 209.5 °C. Besides, the IC50 in data set [1] (setting [3]) was over 50 µM. Moreover, the IC50 in data set [2] (setting [4]) is 21.2 ± 0.89 µM.

In turn, `O=C(Nc1ccc(F)c(Cl)c1)N1CCN(Cc2nc3ccccc3c(=O)[nH]2)CC1` [A36, N-(3-chloro-4-fluorophenyl)-4-((4-oxo-3,4-dihydroquinazolin-2-yl)methyl)piperazine-1-carboxamide] gave a melting point of 200.1 to 202.7 °C. In addition, the IC50 in data set [1] (setting [3]) is over 50 µM. Besides, the 50% inhibitory concentration (IC50) in data set [2] (setting [4]) worked out at 25.2 ± 1.66 µM.

For `Cc1ccc(NC(=O)N2CCN(Cc3nc4ccccc4c(=O)[nH]3)CC2)cc1C` [A37, N-(3,4-dimethylphenyl)-4-((4-oxo-3,4-dihydroquinazolin-2-yl)methyl)piperazine-1-carboxamide], the melting point lay in the range of 194.4 to 196.1 °C. Besides, the IC50 in data set [1] (setting [3]) turned out to be 46.4 ± 2.96 µM. The IC50 in data set [2] (setting [4]) was 22.5 ± 1.49 µM.

`Cc1cc(C)cc(NC(=O)N2CCN(Cc3nc4ccccc4c(=O)[nH]3)CC2)c1` [A38, N-(3,5-dimethylphenyl)-4-((4-oxo-3,4-dihydroquinazolin-2-yl)methyl)piperazine-1-carboxamide]: the melting point was in the range of 201.5 to 203.3 °C. Further, the IC50 in data set [1] (setting [3]) is 17.9 ± 1.32 µM. In addition, the IC50 in data set [2] (setting [4]) was found to be 18 ± 0.88 µM.

The molecule `O=C(Nc1cc(C(F)(F)F)cc(C(F)(F)F)c1)N1CCN(Cc2nc3ccccc3c(=O)[nH]2)CC1` [A39, N-(3,5-bis(trifluoromethyl)phenyl)-4-((4-oxo-3,4-dihydroquinazolin-2-yl)methyl)piperazine-1-carboxamide] returned a melting point of 204.2 to 206.1 °C. In addition, the IC50 in data set [1] (setting [3]) was determined as 42.2 ± 2.77 µM. Moreover, the IC50 in data set [2] (setting [4]) was found to be 21 ± 2.33 µM.

`Cc1ccc(Cl)cc1NC(=O)N1CCN(Cc2nc3ccccc3c(=O)[nH]2)CC1C` (stereo not drawn) [B2, N-(5-chloro-2-methylphenyl)-2-methyl-4-((4-oxo-3,4-dihydroquinazolin-2-yl)methyl)piperazine-1-carboxamide] returned a melting point of 189.5 to 190.8 °C. For the same molecule, the IC50 in data set [1] (setting [3]) amounted to 5.89 ± 0.5 µM. Further, the IC50 in data set [2] (setting [4]) was 6.37 ± 2.83 µM.

Take `Cc1ccc(Cl)cc1NC(=O)N1C[C@@H]2C[C@H]1CN2Cc1nc2ccccc2c(=O)[nH]1` [B3, (1S,4S)-N-(5-chloro-2-methylphenyl)-5-((4-oxo-3,4-dihydroquinazolin-2-yl)methyl)-2,5-diazabicyclo[2.2.1]heptane-2-carboxamide]: the melting point is 191.1 to 192.4 °C. In addition, in data set [1] (setting [3]), the IC50 turned out to be 16.5 ± 0.94 µM. Besides, in data set [2] (setting [4]), the IC50 is 12.5 ± 1.49 µM.

In turn, `Cc1ccc(Cl)cc1NC(=O)N1CCCN(Cc2nc3ccccc3c(=O)[nH]2)CC1` [B4, N-(5-chloro-2-methylphenyl)-4-((4-oxo-3,4-dihydroquinazolin-2-yl)methyl)-1,4-diazepane-1-carboxamide] yielded a melting point of 186.6 to 187.9 °C. Also, the half-inhibitory concentration (IC50) in data set [1] (setting [3]) turned out to be 5.77 ± 0.99 µM. Besides, the IC50 in data set [2] (setting [4]) came to 5.65 ± 1.29 µM.

For `Cc1ccc(Cl)cc1NC(=O)N1C[C@H]2CC[C@@H](C1)N2Cc1nc2ccccc2c(=O)[nH]1` [B5, (1R,5S)-N-(5-chloro-2-methylphenyl)-8-((4-oxo-3,4-dihydroquinazolin-2-yl)methyl)-3,8-diazabicyclo[3.2.1]octane-3-carboxamide], the melting point lay in the range of 189.5 to 191.7 °C. The IC50 in data set [1] (HCC1937, 72 h) was 9.61 ± 1.35 µM. In data set [2] (HCT-15, 72 h), the IC50 stood at 11 ± 2.4 µM.

Molecule `Cc1ccc(Cl)cc1NC(=O)N1C2CCC1CN(Cc1nc3ccccc3c(=O)[nH]1)C2` [B6, N-(5-chloro-2-methylphenyl)-3-((4-oxo-3,4-dihydroquinazolin-2-yl)methyl)-3,8-diazabicyclo[3.2.1]octane-8-carboxamide] returned a melting point of 192.3 to 193.6 °C. Moreover, the IC50 in data set [1] (HCC1937, 72 h) amounted to 7.52 ± 1.37 µM. The IC50 in data set [2] (HCT-15, 72 h) stood at 7.27 ± 1.28 µM.

Molecule `Cc1ccc(Cl)cc1NC(=O)N1CCCN(Cc2nc3ccccc3c(=O)[nH]2)C1` [B7, N-(5-chloro-2-methylphenyl)-3-((4-oxo-3,4-dihydroquinazolin-2-yl)methyl)tetrahydropyrimidine-1(2H)-carboxamide] had a melting point of 197.3 to 198.7 °C. Moreover, the IC50 in data set [1] (setting [3]) turned out to be 57.9 ± 3.33 µM. The IC50 in data set [2] (setting [4]) worked out at 13.7 ± 1.21 µM.

As to `Cc1ccc(Cl)cc1NC(=O)N1C2CC1CN(Cc1nc3cc(F)ccc3c(=O)[nH]1)C2` [C1, N-(5-chloro-2-methylphenyl)-3-((7-fluoro-4-oxo-3,4-dihydroquinazolin-2-yl)methyl)-3,6-diazabicyclo[3.1.1]heptane-6-carboxamide], the melting point is 193.2 to 195.1 °C. The IC50 in data set [1] (HCC1937, 72 h) came to 9.22 ± 1.19 µM. The half-maximal inhibitory concentration (IC50) in data set [2] (HCT-15, 72 h) was found to be 24.1 ± 2.25 µM.

As to `Cc1ccc(Cl)cc1NC(=O)N1C2CC1CN(Cc1nc3cc(Cl)ccc3c(=O)[nH]1)C2` [C2, N-(5-chloro-2-methylphenyl)-3-((7-chloro-4-oxo-3,4-dihydroquinazolin-2-yl)methyl)-3,6-diazabicyclo[3.1.1]heptane-6-carboxamide], the melting point lay in the range of 192.3 to 194.1 °C. The IC50 in data set [1] (HCC1937, 72 h) was found to be 32.4 ± 2.66 µM. Further, in data set [2] (HCT-15, 72 h), the IC50 was determined as 23 ± 1.93 µM.

Consider `Cc1ccc2c(=O)[nH]c(CN3CC4CC(C3)N4C(=O)Nc3cc(Cl)ccc3C)nc2c1` [C3, N-(5-chloro-2-methylphenyl)-3-((7-methyl-4-oxo-3,4-dihydroquinazolin-2-yl)methyl)-3,6-diazabicyclo[3.1.1]heptane-6-carboxamide], for which the melting point was in the range of 197.7 to 199.3 °C. Further, in data set [1] (HCC1937, 72 h), the IC50 stood at 30.1 ± 3.12 µM. Also, the half-inhibitory concentration (IC50) in data set [2] (HCT-15, 72 h) stood at 28.4 ± 2.87 µM.
